Source: the NIST ThermoML archive (doi:10.1007/s10765-008-0535-5)

Test: molar heat capacity at constant volume
Conditions: Liquid, Vacuum adiabatic calorimetry

FCF [difluoromethane]
Conditions | molar heat capacity at constant volume [J/K/mol]
268.15 K, 8268 kPa | 49.47
268.15 K, 8502 kPa | 48.8
269.15 K, 9280 kPa | 49.32
269.15 K, 9512 kPa | 49.68
270.15 K, 10291 kPa | 49.47
270.15 K, 10521 kPa | 49.84
271.15 K, 11302 kPa | 49.42
271.15 K, 11531 kPa | 49.53
272.15 K, 12312 kPa | 49.94
272.15 K, 12421 kPa | 50.57
272.15 K, 12540 kPa | 49.06
273.15 K, 13321 kPa | 49.06
273.15 K, 13429 kPa | 49.79
273.15 K, 13551 kPa | 50.25
274.15 K, 14330 kPa | 49.94
274.15 K, 14438 kPa | 49.63
274.15 K, 14560 kPa | 49.37
275.15 K, 15337 kPa | 49.47
275.15 K, 15444 kPa | 49.84
275.15 K, 15568 kPa | 49.47
276.15 K, 16344 kPa | 49.89
276.15 K, 16452 kPa | 49.84
276.15 K, 16577 kPa | 49.73
277.15 K, 17350 kPa | 49.32
277.15 K, 17457 kPa | 49.63
277.15 K, 17583 kPa | 49.99
278.15 K, 18354 kPa | 49.89
278.15 K, 18462 kPa | 50.25
278.15 K, 18589 kPa | 49.47
279.15 K, 19358 kPa | 49.89
279.15 K, 19465 kPa | 49.79
279.15 K, 19595 kPa | 50.15
280.15 K, 20361 kPa | 49.63
280.15 K, 20468 kPa | 50.2
280.15 K, 20598 kPa | 49.99
281.15 K, 21363 kPa | 50.46
281.15 K, 21470 kPa | 49.63
281.15 K, 21601 kPa | 49.89
282.15 K, 22363 kPa | 49.58
282.15 K, 22472 kPa | 50.25
282.15 K, 22602 kPa | 50.05
283.15 K, 23363 kPa | 50.41
283.15 K, 23473 kPa | 50.15
283.15 K, 23603 kPa | 49.94
284.15 K, 24362 kPa | 50.31
284.15 K, 24472 kPa | 49.94
284.15 K, 24606 kPa | 50.25
285.15 K, 25359 kPa | 50.15
285.15 K, 25470 kPa | 50.51
285.15 K, 25603 kPa | 50.25
286.15 K, 26356 kPa | 50.51
286.15 K, 26466 kPa | 50.62
286.15 K, 26598 kPa | 50.2
287.15 K, 27351 kPa | 50.36
287.15 K, 27461 kPa | 50.2
287.15 K, 27594 kPa | 50.36
288.15 K, 28345 kPa | 50.57
288.15 K, 28454 kPa | 50.62
288.15 K, 28588 kPa | 50.41
289.15 K, 5774 kPa | 51.24
289.15 K, 5835 kPa | 49.79
289.15 K, 29338 kPa | 50.46
289.15 K, 29446 kPa | 50.72
289.15 K, 29581 kPa | 51.09
290.15 K, 6570 kPa | 50.62
290.15 K, 6631 kPa | 50.93
291.15 K, 7365 kPa | 51.14
291.15 K, 7428 kPa | 51.19
292.15 K, 8161 kPa | 51.24
292.15 K, 8224 kPa | 51.14
293.15 K, 8956 kPa | 51.4
293.15 K, 9019 kPa | 51.71
294.15 K, 9752 kPa | 51.66
294.15 K, 9815 kPa | 50.83
295.15 K, 10546 kPa | 51.19
295.15 K, 10610 kPa | 51.56
296.15 K, 11341 kPa | 51.19
296.15 K, 11405 kPa | 51.5
297.15 K, 12135 kPa | 51.61
297.15 K, 12199 kPa | 51.35
298.15 K, 12929 kPa | 51.5
298.15 K, 12993 kPa | 51.92
299.15 K, 13723 kPa | 51.66
299.15 K, 13787 kPa | 51.82
300.15 K, 14517 kPa | 51.66
300.15 K, 14581 kPa | 52.08
301.15 K, 15309 kPa | 52.34
301.15 K, 15374 kPa | 51.92
302.15 K, 16102 kPa | 52.08
302.15 K, 16167 kPa | 52.23
303.15 K, 16894 kPa | 52.13
303.15 K, 16960 kPa | 52.49
304.15 K, 17685 kPa | 52.13
304.15 K, 17752 kPa | 52.54
305.15 K, 18476 kPa | 52.75
305.15 K, 18543 kPa | 52.6
306.15 K, 19267 kPa | 52.75
306.15 K, 19335 kPa | 52.8
307.15 K, 20125 kPa | 52.49
308.15 K, 20848 kPa | 52.91
308.15 K, 20915 kPa | 52.8
309.15 K, 21639 kPa | 52.7
309.15 K, 21704 kPa | 53.32
310.15 K, 22429 kPa | 52.86
310.15 K, 22492 kPa | 53.12
311.15 K, 23217 kPa | 53.17
311.15 K, 23281 kPa | 53.69
312.15 K, 24005 kPa | 53.64
312.15 K, 24068 kPa | 53.79
313.15 K, 24793 kPa | 53.53
313.15 K, 24855 kPa | 53.79
314.15 K, 25579 kPa | 53.79
314.15 K, 25641 kPa | 53.43
315.15 K, 26364 kPa | 53.58
315.15 K, 26427 kPa | 54
316.15 K, 27149 kPa | 53.53
316.15 K, 27212 kPa | 54.68
317.15 K, 27934 kPa | 54.42
317.15 K, 27996 kPa | 54.21
318.15 K, 28719 kPa | 54.1
318.15 K, 28779 kPa | 54.78
